Measured values published in US10730884B2, “Substituted indole compound derivatives as dengue viral replication inhibitors” (Janssen Pharmaceuticals, Inc., priority 2016, dated 2020).
pEC50: −log10 of the molar value. Read-outs that look alike come from different tables or passages of the source.

Assays:
DENV-2 16681 strain = assay: DENV-2 antiviral assay (eGFP-labeled virus, Vero cells); assay type: cell-based, Dengue virus; details: for pEC50: DENV-2 16681 eGFP, Vero cells, MOI 0.5, 3 days; for SI: SI=CC50/EC50, DENV-2 antiviral assay
Description: The antiviral activity of all the compounds of the invention was tested against the DENV-2 16681 strain which was labeled with enhanced green fluorescent protein (eGPF). The culture medium consists of minimal essential medium supplemented with 2% of heat-inactivated fetal calf serum, 0.04% gentamycin (50 mg/mL) and 2 mM of L-glutamine. Vero cells, obtained from ECACC, were suspended in culture medium and 25 μL was added to 384-well plates (2500 cells/well), which already contain the antiviral compounds. Typically, these plates contain a 5-fold serial dilution of 9 dilution steps of the test compound at 200 times the final concentration in 100% DMSO (200 nL). […] Finally, each plate contains wells which are assigned as virus controls (containing cells and virus in the absence of compound), cell controls (containing cells in the absence of virus and compound) and medium controls (containing medium in the absence of cells, virus and compounds). To the wells assigned as medium control, 25 μL of culture medium was added instead of Vero cells. Once the cells were added to the plates, the plates were incubated for 30 minutes at room temperature to allow the cells to distribute evenly within the wells. Next, the plates were incubated in a fully humidified incubator (37° C., 5% CO2) until the next day. Then, DENV-2 strain 16681, labeled with eGFP, was added at a multiplicity of infection (MOI) of 0.5. Therefore, 15 μL of virus suspension was added to all the wells containing test compound and to the wells assigned as virus control. In parallel, 15 μL of culture medium was added to the medium and cell controls. Next, the plates were incubated for 3 days in a fully humidified incubator (37° C., 5% CO2). At the day of the read out, the eGFP fluorescence was measured using an automated fluorescence microscope at 488 nm (blue laser). Using an in-house LIMS system, inhibition dose response curves for each compound were calculated and the half maximal effective concentration (EC50) was determined. Therefore, the percent inhibition (I) for every test concentration is calculated using the following formula: I=100*([…])/(SVC−SCC); ST, SCC and SVC are the amount of eGFP signal in the test compound, cell control and virus control wells, respectively. The EC50 represents the concentration of a compound at which the virus replication is inhibited with 50%, as measured by a 50% reduction of the eGFP fluorescent intensity compared to the virus control. The EC50 is calculated using linear interpolation (Table 1).

in vitro [1] = details: African green monkey
Vero cells [2] = details: African green monkey
DENV-4 strain H241 = assay: Tetravalent RT-qPCR assay, serotype 4; assay type: cell-based, Dengue virus; details: for pEC50: Dengue virus, DENV4, Vero, 72 h, RT-qPCR serotype 4 H241, Protocol A, Vero cells, day 3; for SI: RT-qPCR serotype 4 H241
Description: (§1) The antiviral activity of the compounds of the invention was tested against DENV-1 strain TC974#666 (NCPV), DENV-2 strain 16681, DENV-3 strain H87 (NCPV) and DENV-4 strain H241 (NCPV) in a RT-qPCR assay. Therefore, Vero cells were infected with either DENV-1, or -2, or -3, or -4 in the presence or absence of test compounds. At day 3 post-infection, the cells were lysed and cell lysates were used to prepare cDNA of both a viral target (the 3′UTR of DENV; Table 2) and a cellular reference gene (β-actin, Table 2). Subsequently, a duplex real time PCR was performed on a Lightcycler480 instrument. The generated Cp value is inversely proportional to the amount of RNA expression of these targets. Inhibition of DENV replication by a test compound result in a shift of Cp's for the 3′UTR gene. On the other hand, if a test compound is toxic to the cells, a similar effect on β-actin expression will be observed. The comparative ΔΔCp method is used to calculate EC50, which is based on the relative gene expression of the target gene (3′UTR) normalized with the cellular housekeeping gene (β-actin). In addition, CC50 values are determined based on the Cp values acquired for the housekeeping gene β-actin.
(§2) The culture medium consisted of minimal essential medium supplemented with 2% of heat-inactivated fetal calf serum, 0.04% gentamycin (50 mg/mL) and 2 mM of L-glutamine. Vero cells, obtained from ECACC, were suspended in culture medium and 75 μL/well was added in 96-well plates (10000 cells/well), which already contain the antiviral compounds. […] In addition, each plate contains wells which are assigned as virus controls (containing cells and virus in the absence of compound) and cell controls (containing cells in the absence of virus and compound). Once the cells were added in the plates, the plates were incubated in a fully humidified incubator (37° C., 5% CO2) until the next day. Dengue viruses serotype-1, 2, 3 and 4 were diluted in order to obtain a Cp of ˜22-24 in the assay. Therefore, 25 μL of virus suspension was added to all the wells containing test compound and to the wells assigned as virus control. In parallel, 25 μL of culture medium was added to the cell controls. Next, the plates were incubated for 3 days in a fully humidified incubator (37° C., 5% CO2). After 3 days, the supernatant was removed from the wells and the cells were washed twice with ice-cold PBS (˜100 μL). The cell pellets within the 96-well plates were stored at −80° C. for at least 1 day. Next, RNA was extracted using the Cells-to-CT™ lysis kit, according to the manufacturer's guideline (Life Technologies). The cell lysates can be stored at −80° C. or immediately used in the reverse transcription step.
(§3) In preparation of the reverse transcription step, mix A (table 3A) was prepared and 7.57 μL/well was dispensed in a 96-well plate. After addition of 5 μL of the cell lysates, a five minute denaturation step at 75° C. was performed (table 3B). Afterwards, 7.43 μL of mix B was added (table 3C) and the reverse transcription step was initiated (table 3D) to generate cDNA.
(§4) Finally, a RT-qPCR mix was prepared, mix C (table 4A), and 22.02 μL/well was dispensed in 96-well LightCycler qPCR plates to which 3 μL of cDNA was added and the qPCR was performed according to the conditions in table 4B on a LightCycler 480.
(§5) Using the LightCycler software and an in-house LIMS system, dose response curves for each compound were calculated and the half maximal effective concentration (EC50) and the half maximal cytotoxic concentration (CC50) were determined (Tables 5-8).

DENV-3 strain H87 = assay: Tetravalent RT-qPCR assay, serotype 3; assay type: cell-based, Dengue virus; details: for pEC50: Dengue virus, DENV3, Vero, 72 h, RT-qPCR serotype 3 H87, Protocol A, Vero cells, day 3, read-out: EC50; for SI: RT-qPCR serotype 3 H87
Description: as §1, §2, §3, §4, §5

in vitro [3] = assay type: cell-based; details: African green monkey, CC50
Description: as §1, §2, §5

DENV-1 strain TC974#666 = assay: Tetravalent RT-qPCR assay, serotype 1; assay type: cell-based, Dengue virus; details: for pEC50: Dengue virus, DENV1, Vero, 72 h, RT-qPCR serotype 1 TC974#666, Protocol A, Vero cells, day 3, read-out: EC50; for SI: RT-qPCR serotype 1 TC974#666
Description: as §1, §2, §3, §4, §5

DENV-2 strain 16681 = assay: Tetravalent RT-qPCR assay, serotype 2; assay type: cell-based, Dengue virus; details: for pEC50: Dengue virus, DENV2, Vero, 72 h, RT-qPCR serotype 2 16681, Protocol A, Vero cells, day 3; for SI: RT-qPCR serotype 2 16681
Description: as §1, §2, §3, §4, §5

Vero cells [4] = assay: in vitro; assay type: cell-based; details: African green monkey, 3 days
Description: as §1, §2, §5

DENV-2 = details: analogous DENV-2 antiviral assay, reported activity; cited from earlier work
[5] = Dengue virus, DENV2, Vero, 72 h

SMILES | melting point [°C] | pEC50 (DENV-2 16681 strain; [5]) | SI (DENV-2 16681 strain) | CC50 (in vitro [1]) [nM] | CC50 (Vero cells [2]) [nM] | pEC50 (DENV-2 16681 strain) | pEC50 (DENV-4 strain H241) | SI (DENV-4 strain H241) | pEC50 (DENV-3 strain H87) | SI (DENV-3 strain H87) | CC50 at 3 days (in vitro [3]) [nM] | pEC50 (DENV-1 strain TC974#666) | SI (DENV-1 strain TC974#666) | pEC50 (DENV-2 strain 16681) | SI (DENV-2 strain 16681) | CC50 (Vero cells [4]) [nM] | pEC50 (DENV-2) | SI (DENV-2)
COc1cc(NC(C(=O)c2c[nH]c3c(C)cc(Cl)cc23)c2ccc(F)cc2OC)cc(OCCO)c1 (racemic) [Compound 1, 1-(5-chloro-7-methyl-1H-indol-3-yl)-2-(4-fluoro-2-methoxyphenyl)-2-((3-(2-hydroxyethoxy)-5-methoxyphenyl)amino)ethanone] | 118 | 8.57 | 1800 | 4900 | – | – | – | – | – | – | – | – | – | – | – | – | – | –
COc1cc(NC(C(=O)c2c[nH]c3cc(OC)c(Cl)cc23)c2ccc(F)cc2OC)cc(OCCO)c1 (racemic) [Compound 2, 1-(5-chloro-6-methoxy-1H-indol-3-yl)-2-(4-fluoro-2-methoxyphenyl)-2-((3-(2-hydroxyethoxy)-5-methoxyphenyl)amino)ethanone] | 210 | 8.82 | 4410 | 6700 | – | – | – | – | – | – | – | – | – | – | – | – | – | –
COc1cc(NC(C(=O)c2c[nH]c3cc(F)c(C)cc23)c2ccc(F)cc2OC)cc(OCCO)c1 (racemic) [Compound 3, 2-(4-fluoro-2-methoxyphenyl)-1-(6-fluoro-5-methyl-1H-indol-3-yl)-2-((3-(2-hydroxyethoxy)-5-methoxyphenyl)amino)ethanone] | 197 | 8.46 | 1140 | 4000 | – | – | – | – | – | – | – | – | – | – | – | – | – | –
COc1cc(NC(C(=O)c2c[nH]c3ccc(C)cc23)c2ccc(F)cc2OC)cc(OCCO)c1 (racemic) [Compound 5, 2-(4-fluoro-2-methoxyphenyl)-2-((3-(2-hydroxyethoxy)-5-methoxyphenyl)amino)-1-(5-methyl-1H-indol-3-yl)ethanone] | 199 | 8.32 | 3190 | 14000 | – | – | – | – | – | – | – | – | – | – | – | – | – | –
COc1cc(NC(C(=O)c2c[nH]c3cc(F)c(C)cc23)c2ccc(Cl)cc2OC)cc(OCCO)c1 (racemic) [Compound 9, 2-(4-chloro-2-methoxyphenyl)-1-(6-fluoro-5-methyl-1H-indol-3-yl)-2-((3-(2-hydroxyethoxy)-5-methoxyphenyl)amino)ethanone] | 177 | 8.92 | 2480 | 3100 | – | – | – | – | – | – | – | – | – | – | – | – | – | –
COc1cc(NC(C(=O)c2c[nH]c3c(C)cc(Cl)cc23)c2ccc(F)cc2OC)cc(OCCO)c1 (single isomer, unassigned) [Compound 1A] | – | – | 2070 | – | 3600 | 8.77 | 6.66 | 8.7 | 7.41 | 49 | 2900 | 8.21 | 461 | 8.49 | 1080 | – | – | –
COc1cc(NC(C(=O)c2c[nH]c3cc(OC)c(Cl)cc23)c2ccc(F)cc2OC)cc(OCCO)c1 (single isomer, unassigned) [Compound 2A] | – | – | 6340 | – | 4500 | 9.15 | 6.64 | 9.1 | 7.47 | 90 | 2900 | 8.04 | 350 | 9.00 | 3350 | – | – | –
COc1cc(NC(C(=O)c2c[nH]c3cc(OC(F)(F)F)c(C)cc23)c2ccc(F)cc2OC)cc(OCCO)c1 (single isomer, unassigned) [Compound 4B] | – | – | 409 | – | 3300 | 8.09 | 6.52 | 8.1 | 6.92 | 16 | 3800 | 7.62 | 128 | 8.18 | 553 | – | – | –
COc1cc(NC(C(=O)c2c[nH]c3cc(OC)c(C)c(F)c23)c2ccc(Cl)cc2OC)cc(OCCO)c1 (single isomer, unassigned) [Compound 12B] | – | – | >48400 | – | 4600 | 9.59 | 6.74 | >15 | 7.70 | >106 | > 2200 | 8.31 | >508 | 9.60 | >12200 | > 2500 | – | –
COc1cc(NC(C(=O)c2c[nH]c3ccccc23)c2ccc(F)cc2)cc(OCCO)c1 (centres unmarked) [(350) of WO-2013/045516] | – | – | – | – | – | – | – | – | – | – | – | – | – | – | – | – | 8.00 | 3462
